{"source": "ChEMBL document CHEMBL4049403", "about": "“Oligo-aspartic acid conjugates with benzo[c][2,6]naphthyridine-8-carboxylic acid scaffold as picomolar inhibitors of CK2” (Bioorg Med Chem, 2017)", "key": {"[1]": {"biological_target": "Dual specificity mitogen-activated protein kinase kinase 2 (Homo sapiens) (UniProt P36507)", "sequence (P36507 whole entry)": "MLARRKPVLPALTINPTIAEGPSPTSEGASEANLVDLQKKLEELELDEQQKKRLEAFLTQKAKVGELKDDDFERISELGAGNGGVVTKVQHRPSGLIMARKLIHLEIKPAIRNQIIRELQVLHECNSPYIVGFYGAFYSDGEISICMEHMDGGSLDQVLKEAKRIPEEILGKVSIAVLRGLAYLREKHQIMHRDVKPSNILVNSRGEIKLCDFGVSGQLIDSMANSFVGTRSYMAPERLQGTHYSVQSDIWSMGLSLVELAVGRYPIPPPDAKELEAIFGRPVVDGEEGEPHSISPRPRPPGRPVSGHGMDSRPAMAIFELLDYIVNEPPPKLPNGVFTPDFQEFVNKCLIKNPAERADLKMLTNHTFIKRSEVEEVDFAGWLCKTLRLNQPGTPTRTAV", "assay": "Inhibition of human MKK2 assessed as residual activity at 1 uM in presence of [33P]ATP by filter binding assay relative to control"}, "[2]": {"biological_target": "Mitogen-activated protein kinase 8 (Homo sapiens) (UniProt P45983)", "assay": "Inhibition of human JNK1 assessed as residual activity at 1 uM in presence of [33P]ATP by filter binding assay relative to control"}, "[3]": {"biological_target": "Dual specificity tyrosine-phosphorylation-regulated kinase 2 (Homo sapiens) (UniProt Q92630)", "assay": "Inhibition of human DYRK2 assessed as residual activity at 1 uM in presence of 33P-ATP by filter-binding assay relative to control"}, "[4]": {"biological_target": "Homeodomain-interacting protein kinase 3 (Homo sapiens) (UniProt Q9H422)", "assay": "Inhibition of human HIPK3 assessed as residual activity at 1 uM in presence of 33P-ATP by filter-binding assay relative to control"}, "[5]": {"biological_target": "Inhibitor of nuclear factor kappa-B kinase subunit epsilon (Homo sapiens) (UniProt Q14164)", "assay": "Inhibition of human IKKe assessed as residual activity at 1 uM in presence of 33P-ATP by filter-binding assay relative to control"}, "[6]": {"biological_target": "Tyrosine-protein kinase Lck (Homo sapiens) (UniProt P06239)", "assay": "Inhibition of human Lck assessed as residual activity at 1 uM in presence of 33P-ATP by filter-binding assay relative to control"}, "[7]": {"biological_target": "Receptor-interacting serine/threonine-protein kinase 2 (Homo sapiens) (UniProt O43353)", "assay": "Inhibition of human RIPK2 assessed as residual activity at 1 uM in presence of 33P-ATP by filter-binding assay relative to control"}, "[8]": {"biological_target": "Ephrin type-B receptor 3 (Homo sapiens) (UniProt P54753)", "assay": "Inhibition of human EPHB3 assessed as residual activity at 1 uM in presence of 33P-ATP by filter-binding assay relative to control"}, "[9]": {"biological_target": "Tyrosine-protein kinase BTK (Homo sapiens) (UniProt Q06187)", "sequence (Q06187 whole entry)": "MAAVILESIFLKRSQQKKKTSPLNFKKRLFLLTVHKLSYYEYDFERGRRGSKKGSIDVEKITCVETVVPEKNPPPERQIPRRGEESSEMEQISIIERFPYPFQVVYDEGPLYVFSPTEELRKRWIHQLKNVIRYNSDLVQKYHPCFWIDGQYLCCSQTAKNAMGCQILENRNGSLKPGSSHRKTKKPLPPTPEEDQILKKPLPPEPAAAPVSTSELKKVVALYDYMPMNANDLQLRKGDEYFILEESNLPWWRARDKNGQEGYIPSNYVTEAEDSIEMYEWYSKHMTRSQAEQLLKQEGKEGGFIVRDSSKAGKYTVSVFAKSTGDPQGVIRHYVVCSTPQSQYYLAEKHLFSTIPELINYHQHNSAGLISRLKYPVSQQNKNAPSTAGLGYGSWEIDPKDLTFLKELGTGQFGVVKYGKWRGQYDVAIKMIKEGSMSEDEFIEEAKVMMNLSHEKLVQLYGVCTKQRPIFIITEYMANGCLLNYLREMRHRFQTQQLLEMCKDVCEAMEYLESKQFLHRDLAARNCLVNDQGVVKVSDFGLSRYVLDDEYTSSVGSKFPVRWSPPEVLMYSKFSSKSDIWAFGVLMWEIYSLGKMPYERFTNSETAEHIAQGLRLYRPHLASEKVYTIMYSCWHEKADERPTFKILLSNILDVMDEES", "assay": "Inhibition of human BTK assessed as residual activity at 1 uM in presence of 33P-ATP by filter-binding assay relative to control"}, "[10]": {"biological_target": "Serine/threonine-protein kinase TAO1 (Homo sapiens) (UniProt Q7L7X3)", "sequence (Q7L7X3 whole entry)": "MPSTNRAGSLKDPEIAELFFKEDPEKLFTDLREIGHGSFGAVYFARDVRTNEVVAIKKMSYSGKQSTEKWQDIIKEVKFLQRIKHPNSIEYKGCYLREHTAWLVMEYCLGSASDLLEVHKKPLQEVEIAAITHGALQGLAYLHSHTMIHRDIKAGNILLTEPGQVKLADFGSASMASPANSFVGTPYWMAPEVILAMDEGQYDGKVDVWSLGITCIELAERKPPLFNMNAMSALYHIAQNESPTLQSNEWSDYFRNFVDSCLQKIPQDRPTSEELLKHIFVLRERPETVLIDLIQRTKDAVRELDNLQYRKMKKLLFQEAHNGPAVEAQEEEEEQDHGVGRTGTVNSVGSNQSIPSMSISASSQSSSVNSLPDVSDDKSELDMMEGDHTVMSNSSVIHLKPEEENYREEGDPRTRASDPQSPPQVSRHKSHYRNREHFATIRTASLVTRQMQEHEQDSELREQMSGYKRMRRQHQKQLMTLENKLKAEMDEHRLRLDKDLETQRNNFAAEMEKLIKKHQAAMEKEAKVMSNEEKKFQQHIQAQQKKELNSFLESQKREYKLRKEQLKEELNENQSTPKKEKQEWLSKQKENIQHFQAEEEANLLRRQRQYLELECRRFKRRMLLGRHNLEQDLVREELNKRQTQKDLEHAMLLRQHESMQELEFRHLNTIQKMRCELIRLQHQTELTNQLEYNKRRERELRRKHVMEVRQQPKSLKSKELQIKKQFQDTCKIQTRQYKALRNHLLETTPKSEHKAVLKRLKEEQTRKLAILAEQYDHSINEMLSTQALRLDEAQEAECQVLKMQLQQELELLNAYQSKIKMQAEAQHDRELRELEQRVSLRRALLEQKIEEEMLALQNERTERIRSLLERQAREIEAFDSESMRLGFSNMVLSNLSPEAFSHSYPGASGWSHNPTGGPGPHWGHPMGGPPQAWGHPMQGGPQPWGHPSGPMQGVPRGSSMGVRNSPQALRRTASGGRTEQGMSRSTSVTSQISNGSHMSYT", "assay": "Inhibition of human TAO1 assessed as residual activity at 1 uM in presence of 33P-ATP by filter-binding assay relative to control"}, "[11]": {"biological_target": "MAP kinase-interacting serine/threonine-protein kinase 1 (Homo sapiens) (UniProt Q9BUB5)", "assay": "Inhibition of human MNK1 assessed as residual activity at 1 uM in presence of [33P]ATP by filter binding assay relative to control"}, "[12]": {"biological_target": "Serine/threonine-protein kinase Nek2 (Homo sapiens) (UniProt P51955)", "assay": "Inhibition of human NEK2a assessed as residual activity at 1 uM in presence of [33P]ATP by filter binding assay relative to control"}, "[13]": {"biological_target": "Calcium/calmodulin-dependent protein kinase kinase 2 (Homo sapiens) (UniProt Q96RR4)", "assay": "Inhibition of human CAMKKb assessed as residual activity at 1 uM in presence of [33P]ATP by filter binding assay relative to control"}, "[14]": {"biological_target": "MAP kinase-interacting serine/threonine-protein kinase 2 (Homo sapiens) (UniProt Q9HBH9)", "assay": "Inhibition of human MNK2 assessed as residual activity at 1 uM in presence of [33P]ATP by filter binding assay relative to control"}, "[15]": {"biological_target": "SRSF protein kinase 1 (Homo sapiens) (UniProt Q96SB4)", "assay": "Inhibition of human SRPK1 assessed as residual activity at 1 uM in presence of [33P]ATP by filter binding assay relative to control"}, "[16]": {"biological_target": "Ephrin type-B receptor 1 (Homo sapiens) (UniProt P54762)", "sequence (P54762 whole entry)": "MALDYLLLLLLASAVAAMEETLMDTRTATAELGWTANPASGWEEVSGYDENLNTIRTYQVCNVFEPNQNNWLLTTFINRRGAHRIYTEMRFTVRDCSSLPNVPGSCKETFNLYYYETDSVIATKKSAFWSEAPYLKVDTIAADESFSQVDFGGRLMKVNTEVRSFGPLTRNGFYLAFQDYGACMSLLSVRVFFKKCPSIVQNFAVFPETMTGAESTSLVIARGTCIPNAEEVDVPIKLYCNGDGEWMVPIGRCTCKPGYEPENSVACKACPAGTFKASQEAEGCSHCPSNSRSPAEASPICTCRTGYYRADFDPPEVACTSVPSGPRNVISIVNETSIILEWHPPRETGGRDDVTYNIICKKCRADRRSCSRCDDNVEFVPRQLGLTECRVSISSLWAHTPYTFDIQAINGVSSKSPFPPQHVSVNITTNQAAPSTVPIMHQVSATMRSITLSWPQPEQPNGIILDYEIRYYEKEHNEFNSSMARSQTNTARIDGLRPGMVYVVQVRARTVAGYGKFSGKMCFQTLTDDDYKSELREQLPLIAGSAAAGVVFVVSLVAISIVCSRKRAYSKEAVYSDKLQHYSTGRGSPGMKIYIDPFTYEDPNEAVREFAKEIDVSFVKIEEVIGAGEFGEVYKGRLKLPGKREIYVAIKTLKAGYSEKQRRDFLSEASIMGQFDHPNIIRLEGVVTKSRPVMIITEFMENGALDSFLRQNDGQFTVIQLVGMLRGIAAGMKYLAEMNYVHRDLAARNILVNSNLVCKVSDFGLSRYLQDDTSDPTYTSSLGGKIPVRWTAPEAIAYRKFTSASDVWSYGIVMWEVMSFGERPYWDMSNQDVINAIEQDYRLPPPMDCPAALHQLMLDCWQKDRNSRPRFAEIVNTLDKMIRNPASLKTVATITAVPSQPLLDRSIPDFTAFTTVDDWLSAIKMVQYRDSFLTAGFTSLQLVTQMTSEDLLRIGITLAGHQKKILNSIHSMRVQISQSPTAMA", "assay": "Inhibition of human EPHB1 assessed as residual activity at 1 uM in presence of [33P]ATP by filter binding assay relative to control"}, "[17]": {"biological_target": "Rho-associated protein kinase 2 (Homo sapiens) (UniProt O75116)", "assay": "Inhibition of human ROCK2 assessed as residual activity at 1 uM in presence of [33P]ATP by filter binding assay relative to control"}, "[18]": {"biological_target": "Receptor tyrosine-protein kinase erbB-4 (Homo sapiens) (UniProt Q15303)", "assay": "Inhibition of human HER4 assessed as residual activity at 1 uM in presence of [33P]ATP by filter binding assay relative to control"}, "[19]": {"biological_target": "Serine/threonine-protein kinase Nek6 (Homo sapiens) (UniProt Q9HC98)", "sequence (Q9HC98 whole entry)": "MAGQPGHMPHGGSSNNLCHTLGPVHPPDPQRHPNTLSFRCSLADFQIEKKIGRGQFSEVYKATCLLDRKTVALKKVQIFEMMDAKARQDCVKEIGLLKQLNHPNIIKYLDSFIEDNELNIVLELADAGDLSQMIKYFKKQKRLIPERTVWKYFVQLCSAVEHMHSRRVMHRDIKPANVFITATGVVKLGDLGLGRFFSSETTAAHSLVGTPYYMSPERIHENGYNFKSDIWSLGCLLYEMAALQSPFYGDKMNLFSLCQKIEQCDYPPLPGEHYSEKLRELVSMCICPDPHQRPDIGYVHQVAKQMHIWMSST", "assay": "Inhibition of human NEK6 assessed as residual activity at 1 uM in presence of [33P]ATP by filter binding assay relative to control"}, "[20]": {"biological_target": "Mitogen-activated protein kinase 1 (Homo sapiens) (UniProt P28482)", "assay": "Inhibition of human ERK2 assessed as residual activity at 1 uM in presence of [33P]ATP by filter binding assay relative to control"}, "[21]": {"biological_target": "Serine/threonine-protein kinase Chk1 (Homo sapiens) (UniProt O14757)", "sequence (O14757 whole entry)": "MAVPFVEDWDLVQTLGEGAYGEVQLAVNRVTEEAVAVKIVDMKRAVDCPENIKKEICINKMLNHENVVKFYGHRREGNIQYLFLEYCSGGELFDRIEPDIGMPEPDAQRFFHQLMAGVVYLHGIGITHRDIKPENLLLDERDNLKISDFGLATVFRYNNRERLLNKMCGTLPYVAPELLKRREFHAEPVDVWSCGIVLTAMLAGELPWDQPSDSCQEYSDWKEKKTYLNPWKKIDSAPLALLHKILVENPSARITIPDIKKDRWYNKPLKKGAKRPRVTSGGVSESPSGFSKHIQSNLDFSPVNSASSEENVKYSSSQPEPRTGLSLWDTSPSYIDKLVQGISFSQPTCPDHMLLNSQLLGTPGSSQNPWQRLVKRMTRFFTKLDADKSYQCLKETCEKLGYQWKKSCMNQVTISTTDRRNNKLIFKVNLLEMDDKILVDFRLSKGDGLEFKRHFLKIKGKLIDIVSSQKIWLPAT", "assay": "Inhibition of human CHK1 assessed as residual activity at 1 uM in presence of [33P]ATP by filter binding assay relative to control"}, "[22]": {"biological_target": "Insulin receptor-related protein (Homo sapiens) (UniProt P14616)", "assay": "Inhibition of human IRR assessed as residual activity at 1 uM in presence of [33P]ATP by filter binding assay relative to control"}, "[23]": {"biological_target": "Serine/threonine-protein kinase Chk2 (Homo sapiens) (UniProt O96017)", "sequence (O96017 whole entry)": "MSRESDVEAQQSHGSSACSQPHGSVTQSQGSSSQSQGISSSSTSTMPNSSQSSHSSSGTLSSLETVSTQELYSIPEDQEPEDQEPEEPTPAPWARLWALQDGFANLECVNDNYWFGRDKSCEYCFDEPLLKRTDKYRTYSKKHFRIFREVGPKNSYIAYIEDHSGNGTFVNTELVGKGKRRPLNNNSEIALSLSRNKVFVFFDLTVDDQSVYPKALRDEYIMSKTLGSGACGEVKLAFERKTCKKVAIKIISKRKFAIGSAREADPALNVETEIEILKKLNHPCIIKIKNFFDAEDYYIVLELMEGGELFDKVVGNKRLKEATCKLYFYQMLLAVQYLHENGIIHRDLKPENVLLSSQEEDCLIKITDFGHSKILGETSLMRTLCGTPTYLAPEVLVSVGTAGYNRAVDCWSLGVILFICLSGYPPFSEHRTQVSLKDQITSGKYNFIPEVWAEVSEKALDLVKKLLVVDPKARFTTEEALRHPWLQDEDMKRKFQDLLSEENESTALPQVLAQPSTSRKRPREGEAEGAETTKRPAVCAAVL", "assay": "Inhibition of human CHK2 assessed as residual activity at 1 uM in presence of [33P]ATP by filter binding assay relative to control"}, "[24]": {"biological_target": "Maternal embryonic leucine zipper kinase (Homo sapiens) (UniProt Q14680)", "assay": "Inhibition of human MELK assessed as residual activity at 1 uM in presence of [33P]ATP by filter binding assay relative to control"}, "[25]": {"biological_target": "Serine/threonine-protein kinase WNK1 (Homo sapiens) (UniProt Q9H4A3)", "assay": "Inhibition of human WNK1 assessed as residual activity at 1 uM in presence of [33P]ATP by filter binding assay relative to control"}, "[26]": {"biological_target": "Mitogen-activated protein kinase 3 (Homo sapiens) (UniProt P27361)", "sequence (P27361 whole entry)": "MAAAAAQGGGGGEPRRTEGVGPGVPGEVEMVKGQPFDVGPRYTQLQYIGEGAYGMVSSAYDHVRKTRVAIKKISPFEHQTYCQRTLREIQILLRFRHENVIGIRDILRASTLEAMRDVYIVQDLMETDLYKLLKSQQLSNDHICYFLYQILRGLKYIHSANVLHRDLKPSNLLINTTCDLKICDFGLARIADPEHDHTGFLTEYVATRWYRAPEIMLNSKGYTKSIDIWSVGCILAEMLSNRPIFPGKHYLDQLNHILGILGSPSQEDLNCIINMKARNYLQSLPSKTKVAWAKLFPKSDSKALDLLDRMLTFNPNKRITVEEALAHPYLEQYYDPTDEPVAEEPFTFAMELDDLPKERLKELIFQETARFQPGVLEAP", "assay": "Inhibition of human ERK1 assessed as residual activity at 1 uM in presence of [33P]ATP by filter binding assay relative to control"}, "[27]": {"biological_target": "Discoidin domain-containing receptor 2 (Homo sapiens) (UniProt Q16832)", "assay": "Inhibition of human DDR2 assessed as residual activity at 1 uM in presence of [33P]ATP by filter binding assay relative to control"}, "[28]": {"biological_target": "Mitogen-activated protein kinase kinase kinase 5 (Homo sapiens) (UniProt Q99683)", "assay": "Inhibition of human ASK1 assessed as residual activity at 1 uM in presence of [33P]ATP by filter binding assay relative to control"}, "[29]": {"biological_target": "Serine/threonine-protein kinase 16 (Homo sapiens) (UniProt O75716)", "assay": "Inhibition of human MPSK1 assessed as residual activity at 1 uM in presence of [33P]ATP by filter binding assay relative to control"}}, "note": "Where a SMILES comes first, the peptide text is derived from it. The star is where a group is joined. X1 = O=C(O)c1ccc2c(c1)nc(OCCCCCCCCC(=O)*)c1ccncc12"}
{"compound": "NCCCC[C@H](NC(=O)[C@H](CC(=O)O)NC(=O)[C@H](CC(=O)O)NC(=O)[C@H](CC(=O)O)NC(=O)[C@H](CC(=O)O)NC(=O)[C@H](CC(=O)O)NC(=O)[C@H](CC(=O)O)NC(=O)CCCCCCCCOc1nc2cc(C(=O)O)ccc2c2cnccc12)C(=O)O", "note": "(X1-DDDDDDK-OH)", "values": [{"measurement": "Activity", "setting": "[1]", "value": 88, "unit": "%"}, {"measurement": "Activity", "setting": "[2]", "value": 91, "unit": "%"}, {"measurement": "Activity", "setting": "[3]", "value": 5, "unit": "%"}, {"measurement": "Activity", "setting": "[4]", "value": 8, "unit": "%"}, {"measurement": "Activity", "setting": "[5]", "value": 13, "unit": "%"}, {"measurement": "Activity", "setting": "[6]", "value": 39, "unit": "%"}, {"measurement": "Activity", "setting": "[7]", "value": 39, "unit": "%"}, {"measurement": "Activity", "setting": "[8]", "value": 56, "unit": "%"}, {"measurement": "Activity", "setting": "[9]", "value": 62, "unit": "%"}, {"measurement": "Activity", "setting": "[10]", "value": 65, "unit": "%"}, {"measurement": "Activity", "setting": "[11]", "value": 67, "unit": "%"}, {"measurement": "Activity", "setting": "[12]", "value": 76, "unit": "%"}, {"measurement": "Activity", "setting": "[13]", "value": 81, "unit": "%"}, {"measurement": "Activity", "setting": "[14]", "value": 85, "unit": "%"}, {"measurement": "Activity", "setting": "[15]", "value": 86, "unit": "%"}, {"measurement": "Activity", "setting": "[16]", "value": 89, "unit": "%"}, {"measurement": "Activity", "setting": "[17]", "value": 90, "unit": "%"}, {"measurement": "Activity", "setting": "[18]", "value": 90, "unit": "%"}, {"measurement": "Activity", "setting": "[19]", "value": 90, "unit": "%"}, {"measurement": "Activity", "setting": "[20]", "value": 90, "unit": "%"}, {"measurement": "Activity", "setting": "[21]", "value": 91, "unit": "%"}, {"measurement": "Activity", "setting": "[22]", "value": 92, "unit": "%"}, {"measurement": "Activity", "setting": "[23]", "value": 92, "unit": "%"}, {"measurement": "Activity", "setting": "[24]", "value": 93, "unit": "%"}, {"measurement": "Activity", "setting": "[25]", "value": 96, "unit": "%"}, {"measurement": "Activity", "setting": "[26]", "value": 106, "unit": "%"}, {"measurement": "Activity", "setting": "[27]", "value": 117, "unit": "%"}, {"measurement": "Activity", "setting": "[28]", "value": 118, "unit": "%"}, {"measurement": "Activity", "setting": "[29]", "value": 118, "unit": "%"}]}
